US8183236B2, “Compounds with HIV-1 integrase inhibitory activity and use thereof as anti-HIV/AIDS therapeutics” (University of Southern California, priority 2007, dated 2012)

Biological target: T1, HIV-1 integrase (wild-type IN) (Human immunodeficiency virus type 1 group M subtype B, UniProt P12497)
Experiment: HIV-1 integrase strand transfer assay (32P-labeled 21-mer, gel)
Type: biochemical
Details: Table 53, structurally diverse compounds; read-out: IN inhibition activity Strand transfer
Summary of the method: (§1)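 Wild-type IN at 200 nM preincubated with inhibitor 30 min at 30 °C in MnCl2 (7.5 mM), pH 7.2 MOPS buffer with 10% DMSO, then 20 nM 5′-32P-labeled 21-mer duplex added for 1 h. 19-mer and strand-transfer products resolved on denaturing 20% gels by phosphorimaging; IC50 from log concentration versus % inhibition.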

Row | SMILES | IC50 [µM]
1 | Cc1ccc(C(=O)O)cc1NC(=O)CSc1nc2ccccc2s1 [GLD59] | 17 ± 2

Same assay, conditions: unit inferred; read-out: HIV-1 IN Inhibitory Activities Strand transfer

Row | SMILES | IC50 [µM]
2 | COc1ccc(C2C(C(=O)c3ccco3)=C(O)C(=O)N2CCN2CCOCC2)c(OC)c1 (stereo not drawn) [MMC8] | 395
3 | O=C(Nc1cc(C(=O)Nc2ccccc2C(=O)O)cc(C(=O)Nc2ccccc2C(=O)O)c1)c1ccccc1 [ROM1] | 20

Same assay, conditions: unit inferred; read-out: IN inhibition activity Strand transfer

Row | SMILES | IC50 [µM]
4 | COc1ccc(-c2nnc(SCC(=O)N/N=C/c3ccccc3C(=O)O)n2-c2ccccc2)cc1OC [GLD38] | > 100
5 | O=C(CSc1nnc(-c2ccc(Cl)cc2)n1-c1ccccc1)N/N=C/c1ccccc1C(=O)O [GLD39] | > 100
6 | Nc1c(C(=O)Nc2ccc(Cl)c(Cl)c2)sc2[nH]c(=O)c(C(=O)O)cc12 [GLD44] | 5 ± 4
7 | COc1cccc(NC(=O)c2sc3[nH]c(=O)c(C(=O)O)cc3c2N)c1 [GLD45] | 43 ± 12
8 | CSc1ccc(/C=N/NC(=O)CSc2nnc(-c3ccc(Cl)cc3)n2-c2ccccc2)cc1 [HD39] | > 100
9 | COc1ccc(-c2nnc(SCC(=O)N/N=C/c3cccc(Oc4ccccc4)c3)n2-c2ccccc2)cc1OC [LX6] | > 100
10 | O=C(CSc1nnc(-c2ccc(Cl)cc2)n1-c1ccccc1)N/N=C/c1cccc(Oc2ccccc2)c1 [LX7] | > 100
11 | COc1ccc(O)c(/C=N/NC(=O)CSc2nnc(-c3ccncc3)n2-c2ccccc2)c1 [MC41] | > 100
12 | COc1ccc(/C=N/NC(=O)CSc2nnc(-c3ccccc3)n2-c2ccccc2)c(C(=O)O)c1OC [OT10] | > 100
13 | O=C(N/N=C/c1ccc(-c2ccc(O)c(C(=O)O)c2)o1)c1cccnc1 [SA1] | 9 ± 5

Same assay, conditions: wild-type IN 200 nM, 7.5 mM MnCl2; read-out: Inhibition of IN Catalytic Activities IC50 (μM) Strand Transfer

Row | SMILES | IC50 [µM]
14 | O=C(Nc1ncccc1O)c1c(O)c2cccc3c2n(c1=O)CCC3 [LM11] | 15
15 | CCOc1ccc2c(c1)C(=C1SC(C(=O)OC)=C(C(=O)OC)S1)C(=S)C(C)(C)N2C(=O)c1ccccc1F [OT2] | 95 ± 9
16 | COc1cc(/C=C2/SC(=S)N(CC(=O)O)C2=O)ccc1OCc1ccccc1 [OT3] | 92 ± 7
17 | COc1cc(/C=C2/SC(=S)N(CC(=O)O)C2=O)ccc1OCc1ccccc1Cl [OT4] | 22 ± 4
18 | COc1ccc(/C=C2/SC(=S)N(CC(=O)O)C2=O)cc1OCc1ccccc1 [OT5] | 54 ± 17
19 | COc1ccc(/C=C2/SC(=S)N(CC(=O)O)C2=O)cc1CCc1ccc(Cl)cc1Cl [OT6] | 13 ± 7
20 | O=C(N/N=C/c1ccc(-c2ccc(Cl)c(Cl)c2)o1)c1ccccc1O [OT8] | 14 ± 4
21 | COc1cc(/C=C2/SC(=S)N(CC(=O)O)C2=O)ccc1OC(=O)c1ccc(F)cc1 [OT9] | 97 ± 5
22 | COc1cc(/C=C2/SC(=S)N(CCC(=O)O)C2=O)ccc1OC(=O)c1ccccc1 [OT17] | 27 ± 11
23 | Cc1ccc(S(=O)(=O)N(CC(=O)Nc2ccccc2C(=O)O)c2cccc(Cl)c2)cc1 [OT24] | 71 ± 23
24 | CCOc1ccc(N(CC(=O)Nc2ccccc2C(=O)O)S(=O)(=O)c2ccc(Cl)cc2)cc1 [OT27] | 47 ± 22
25 | CCCc1cc2c(-c3ccccc3)cc(=O)oc2cc1OCc1ccc(C(=O)O)o1 [OT32] | 57 ± 22
26 | N#Cc1c(-c2ccc(F)cc2)cc(C2CC2)nc1SCCN1C(=O)c2ccccc2C1=O [OT33] | 95 ± 11
27 | O=C(N/N=C/c1ccc(-c2ccc(O)c(C(=O)O)c2)o1)c1cccnc1 [SA1] | 9

Biological target: T1, HIV-1 integrase (wild-type IN)
Experiment: HIV-1 integrase 3′-processing assay (32P-labeled 21-mer, gel)
Type: biochemical
Details: Table 53, structurally diverse compounds; read-out: IN inhibition activity 3′-processing
Summary of the method: as §1

Row | SMILES | IC50 [µM]
28 | Cc1ccc(C(=O)O)cc1NC(=O)CSc1nc2ccccc2s1 [GLD59] | 63 ± 22

Same assay, conditions: unit inferred; read-out: HIV-1 IN Inhibitory Activities 3′-processing

Row | SMILES | IC50 [µM]
29 | COc1ccc(C2C(C(=O)c3ccco3)=C(O)C(=O)N2CCN2CCOCC2)c(OC)c1 (stereo not drawn) [MMC8] | > 1000
30 | O=C(Nc1cc(C(=O)Nc2ccccc2C(=O)O)cc(C(=O)Nc2ccccc2C(=O)O)c1)c1ccccc1 [ROM1] | 78

Same assay, conditions: unit inferred; read-out: IN inhibition activity 3′-processing

Row | SMILES | IC50 [µM]
31 | COc1ccc(-c2nnc(SCC(=O)N/N=C/c3ccccc3C(=O)O)n2-c2ccccc2)cc1OC [GLD38] | > 100
32 | O=C(CSc1nnc(-c2ccc(Cl)cc2)n1-c1ccccc1)N/N=C/c1ccccc1C(=O)O [GLD39] | > 100
33 | Nc1c(C(=O)Nc2ccc(Cl)c(Cl)c2)sc2[nH]c(=O)c(C(=O)O)cc12 [GLD44] | 14 ± 6
34 | COc1cccc(NC(=O)c2sc3[nH]c(=O)c(C(=O)O)cc3c2N)c1 [GLD45] | 82 ± 13
35 | CSc1ccc(/C=N/NC(=O)CSc2nnc(-c3ccc(Cl)cc3)n2-c2ccccc2)cc1 [HD39] | > 100
36 | COc1ccc(-c2nnc(SCC(=O)N/N=C/c3cccc(Oc4ccccc4)c3)n2-c2ccccc2)cc1OC [LX6] | > 100
37 | O=C(CSc1nnc(-c2ccc(Cl)cc2)n1-c1ccccc1)N/N=C/c1cccc(Oc2ccccc2)c1 [LX7] | > 100
38 | COc1ccc(O)c(/C=N/NC(=O)CSc2nnc(-c3ccncc3)n2-c2ccccc2)c1 [MC41] | > 100
39 | COc1ccc(/C=N/NC(=O)CSc2nnc(-c3ccccc3)n2-c2ccccc2)c(C(=O)O)c1OC [OT10] | > 100
40 | O=C(N/N=C/c1ccc(-c2ccc(O)c(C(=O)O)c2)o1)c1cccnc1 [SA1] | 59 ± 1

Same assay, conditions: wild-type IN 200 nM, 7.5 mM MnCl2; read-out: Inhibition of IN Catalytic Activities IC50 (μM) 3′-processing

Row | SMILES | IC50 [µM]
41 | O=C(Nc1ncccc1O)c1c(O)c2cccc3c2n(c1=O)CCC3 [LM11] | 56
42 | CCOc1ccc2c(c1)C(=C1SC(C(=O)OC)=C(C(=O)OC)S1)C(=S)C(C)(C)N2C(=O)c1ccccc1F [OT2] | > 100
43 | COc1cc(/C=C2/SC(=S)N(CC(=O)O)C2=O)ccc1OCc1ccccc1 [OT3] | > 100
44 | COc1cc(/C=C2/SC(=S)N(CC(=O)O)C2=O)ccc1OCc1ccccc1Cl [OT4] | 48 ± 7
45 | COc1ccc(/C=C2/SC(=S)N(CC(=O)O)C2=O)cc1OCc1ccccc1 [OT5] | > 100
46 | COc1ccc(/C=C2/SC(=S)N(CC(=O)O)C2=O)cc1CCc1ccc(Cl)cc1Cl [OT6] | 17 ± 4
47 | O=C(N/N=C/c1ccc(-c2ccc(Cl)c(Cl)c2)o1)c1ccccc1O [OT8] | 31 ± 16
48 | COc1cc(/C=C2/SC(=S)N(CC(=O)O)C2=O)ccc1OC(=O)c1ccc(F)cc1 [OT9] | > 100
49 | COc1cc(/C=C2/SC(=S)N(CCC(=O)O)C2=O)ccc1OC(=O)c1ccccc1 [OT17] | 42 ± 20
50 | Cc1ccc(S(=O)(=O)N(CC(=O)Nc2ccccc2C(=O)O)c2cccc(Cl)c2)cc1 [OT24] | 98 ± 5
51 | CCOc1ccc(N(CC(=O)Nc2ccccc2C(=O)O)S(=O)(=O)c2ccc(Cl)cc2)cc1 [OT27] | 69 ± 15
52 | CCCc1cc2c(-c3ccccc3)cc(=O)oc2cc1OCc1ccc(C(=O)O)o1 [OT32] | 72 ± 8
53 | N#Cc1c(-c2ccc(F)cc2)cc(C2CC2)nc1SCCN1C(=O)c2ccccc2C1=O [OT33] | > 100
54 | O=C(N/N=C/c1ccc(-c2ccc(O)c(C(=O)O)c2)o1)c1cccnc1 [SA1] | 59
